Source: the NIST ThermoML archive (doi:10.1016/j.jct.2017.08.004)
Numbers after ± are expanded uncertainties.

Assay: molar heat capacity at constant pressure
Settings: 101.33 kPa, Crystal

O[C@H]1[C@H](O)[C@@H](O)[C@H](O)[C@@H](O)[C@H]1O [cis-1,2,3,5-trans-4,6-cyclohexanehexol]
molar heat capacity at constant pressure [J/K/mol]
Settings | Small sample (50 mg) DSC | relaxation calorimetry
1 K | – | 0.00189 ± 0.00021
1.926 K | – | 0.009609 ± 0.0008
2 K | – | 0.0108 ± 0.00074
2.127 K | – | 0.01292 ± 0.0011
2.354 K | – | 0.01758 ± 0.0013
2.61 K | – | 0.02281 ± 0.0017
2.904 K | – | 0.03148 ± 0.0023
3 K | – | 0.03479 ± 0.0023
3.219 K | – | 0.04281 ± 0.0031
3.569 K | – | 0.0586 ± 0.0042
3.959 K | – | 0.08072 ± 0.0058
4 K | – | 0.08367 ± 0.0053
4.391 K | – | 0.1121 ± 0.008
4.872 K | – | 0.1562 ± 0.011
5 K | – | 0.1693 ± 0.011
5.405 K | – | 0.2182 ± 0.015
5.998 K | – | 0.3056 ± 0.021
6 K | – | 0.3048 ± 0.019
6.654 K | – | 0.4273 ± 0.03
7 K | – | 0.5031 ± 0.031
7.388 K | – | 0.5992 ± 0.042
8 K | – | 0.7731 ± 0.048
8.198 K | – | 0.8347 ± 0.058
9 K | – | 1.113 ± 0.069
9.101 K | – | 1.15 ± 0.08
10 K | – | 1.523 ± 0.094
10.15 K | – | 1.591 ± 0.11
11.25 K | – | 2.131 ± 0.15
12.48 K | – | 2.827 ± 0.2
13.85 K | – | 3.674 ± 0.26
15 K | – | 4.447 ± 0.27
15.39 K | – | 4.714 ± 0.33
17.07 K | – | 5.945 ± 0.41
18.96 K | – | 7.393 ± 0.52
20 K | – | 8.193 ± 0.5
21.04 K | – | 8.992 ± 0.37
23.37 K | – | 10.83 ± 0.44
25 K | – | 12.09 ± 0.74
25.95 K | – | 12.77 ± 0.52
28.81 K | – | 14.98 ± 0.61
30 K | – | 15.9 ± 0.97
32 K | – | 17.42 ± 0.71
35 K | – | 19.73 ± 1.2
35.5 K | – | 20.13 ± 0.82
39.37 K | – | 23.3 ± 0.95
40 K | – | 23.68 ± 1.4
43.71 K | – | 26.66 ± 1.1
45 K | – | 27.69 ± 1.7
48.5 K | – | 30.26 ± 1.2
50 K | – | 31.58 ± 1.9
53.84 K | – | 34.36 ± 1.4
55 K | – | 35.27 ± 2.2
59.75 K | – | 39.03 ± 1.6
60 K | – | 39.12 ± 2.4
65 K | – | 43.04 ± 2.6
66.32 K | – | 44.21 ± 1.8
70 K | – | 47.02 ± 2.9
73.64 K | – | 49.9 ± 2
75 K | – | 51.04 ± 3.1
80 K | – | 55.09 ± 3.4
81.73 K | – | 56.7 ± 2.3
85 K | – | 59.15 ± 3.6
90 K | – | 63.21 ± 3.9
90.71 K | – | 63.72 ± 2.6
95 K | – | 67.25 ± 4.1
100 K | – | 71.28 ± 4.4
100.66 K | – | 71.12 ± 2.9
110 K | – | 79.22 ± 4.9
110.79 K | – | 79.63 ± 3.2
120 K | – | 87.03 ± 5.3
120.83 K | – | 87.98 ± 3.6
130 K | – | 94.69 ± 5.8
130.89 K | – | 95.77 ± 3.9
140 K | – | 102.22 ± 6.3
141.02 K | – | 103.28 ± 4.2
150 K | – | 109.64 ± 6.7
151.12 K | – | 110.61 ± 4.5
160 K | – | 116.97 ± 7.2
161.24 K | – | 117.92 ± 4.8
170 K | – | 124.22 ± 7.6
171.29 K | – | 125.13 ± 5.1
180 K | – | 131.43 ± 8.1
181.39 K | – | 132.46 ± 5.4
188.15 K | 132.1 ± 19 | –
189.15 K | 133.01 ± 19 | –
190 K | – | 138.61 ± 8.5
190.15 K | 134.04 ± 19 | –
191.15 K | 134.87 ± 19 | –
191.48 K | – | 139.61 ± 5.7
192.15 K | 135.65 ± 19 | –
193.15 K | 136.44 ± 19 | –
194.15 K | 137.52 ± 19 | –
195.15 K | 138.44 ± 19 | –
196.15 K | 139.45 ± 20 | –
197.15 K | 140.42 ± 20 | –
198.15 K | 141.25 ± 20 | –
199.15 K | 142.04 ± 20 | –
200 K | – | 145.78 ± 8.9
200.15 K | 142.99 ± 20 | –
201.15 K | 143.81 ± 20 | –
201.58 K | – | 146.36 ± 6
202.15 K | 144.76 ± 20 | –
203.15 K | 145.49 ± 20 | –
204.15 K | 146.25 ± 21 | –
205.15 K | 147.12 ± 21 | –
206.15 K | 147.9 ± 21 | –
207.15 K | 148.76 ± 21 | –
208.15 K | 149.37 ± 21 | –
209.15 K | 150.17 ± 21 | –
210 K | – | 152.96 ± 9.4
210.15 K | 150.93 ± 21 | –
211.15 K | 151.82 ± 21 | –
211.7 K | – | 153.74 ± 6.2
212.15 K | 152.59 ± 21 | –
213.15 K | 153.21 ± 22 | –
214.15 K | 154.05 ± 22 | –
215.15 K | 154.79 ± 22 | –
216.15 K | 155.5 ± 22 | –
217.15 K | 156.37 ± 22 | –
218.15 K | 157.24 ± 22 | –
219.15 K | 158 ± 22 | –
220 K | – | 160.15 ± 9.8
220.15 K | 158.66 ± 22 | –
221.15 K | 159.51 ± 22 | –
221.79 K | – | 161.31 ± 6.5
222.15 K | 160.36 ± 23 | –
223.15 K | 161.11 ± 23 | –
224.15 K | 161.84 ± 23 | –
225.15 K | 162.58 ± 23 | –
226.15 K | 163.3 ± 23 | –
227.15 K | 164.03 ± 23 | –
228.15 K | 164.76 ± 23 | –
229.15 K | 165.48 ± 23 | –
230 K | – | 167.37 ± 10
230.15 K | 166.09 ± 23 | –
231.15 K | 166.87 ± 23 | –
231.88 K | – | 168.69 ± 6.8
232.15 K | 167.66 ± 24 | –
233.15 K | 168.47 ± 24 | –
234.15 K | 169.23 ± 24 | –
235.15 K | 169.98 ± 24 | –
236.15 K | 170.76 ± 24 | –
237.15 K | 171.54 ± 24 | –
238.15 K | 172.36 ± 24 | –
239.15 K | 173.06 ± 24 | –
240 K | – | 174.63 ± 11
240.15 K | 173.81 ± 24 | –
241.15 K | 174.61 ± 25 | –
241.96 K | – | 176.25 ± 7.2
242.15 K | 175.4 ± 25 | –
243.15 K | 176.08 ± 25 | –
244.15 K | 176.84 ± 25 | –
245.15 K | 177.49 ± 25 | –
246.15 K | 178.19 ± 25 | –
247.15 K | 178.89 ± 25 | –
248.15 K | 179.65 ± 25 | –
249.15 K | 180.32 ± 25 | –
250 K | – | 181.94 ± 11
250.15 K | 181.03 ± 25 | –
251.15 K | 181.9 ± 26 | –
251.99 K | – | 183.44 ± 7.5
252.15 K | 182.55 ± 26 | –
253.15 K | 183.36 ± 26 | –
254.15 K | 184.08 ± 26 | –
255.15 K | 184.96 ± 26 | –
256.15 K | 185.78 ± 26 | –
257.15 K | 186.45 ± 26 | –
258.15 K | 187.25 ± 26 | –
259.15 K | 188.05 ± 26 | –
260 K | – | 189.3 ± 12
260.15 K | 188.81 ± 27 | –
261.15 K | 189.58 ± 27 | –
262.11 K | – | 191.23 ± 7.8
262.15 K | 190.24 ± 27 | –
263.15 K | 191.02 ± 27 | –
264.15 K | 191.84 ± 27 | –
265.15 K | 192.51 ± 27 | –
266.15 K | 193.18 ± 27 | –
267.15 K | 194.11 ± 27 | –
268.15 K | 194.88 ± 27 | –
269.15 K | 195.58 ± 28 | –
270 K | – | 196.73 ± 12
270.15 K | 196.44 ± 28 | –
271.15 K | 197.16 ± 28 | –
272.15 K | 197.91 ± 28 | –
272.17 K | – | 198.87 ± 8.1
273.15 K | 198.7 ± 28 | 199.08 ± 12
274.15 K | 199.42 ± 28 | –
275.15 K | 200.19 ± 28 | –
276.15 K | 201.09 ± 28 | –
277.15 K | 201.63 ± 28 | –
278.15 K | 202.4 ± 28 | –
279.15 K | 203.19 ± 29 | –
280 K | – | 204.22 ± 13
280.15 K | 203.91 ± 29 | –
281.15 K | 204.75 ± 29 | –
282.15 K | 205.45 ± 29 | –
282.18 K | – | 206.06 ± 8.4
283.15 K | 206.13 ± 29 | –
284.15 K | 206.78 ± 29 | –
285.15 K | 207.67 ± 29 | –
286.15 K | 208.29 ± 29 | –
287.15 K | 208.96 ± 29 | –
288.15 K | 209.73 ± 30 | –
289.15 K | 210.44 ± 30 | –
290 K | – | 211.78 ± 13
290.15 K | 211.29 ± 30 | –
291.15 K | 212.09 ± 30 | –
292.15 K | 212.8 ± 30 | –
292.29 K | – | 213.34 ± 8.7
293.15 K | 213.54 ± 30 | –
294.15 K | 214.44 ± 30 | –
295.15 K | 215.31 ± 30 | –
296.15 K | 216.01 ± 30 | –
297.15 K | 216.77 ± 30 | –
298.15 K | 217.6 ± 31 | 218 ± 13
299.15 K | 218.39 ± 31 | –
300 K | – | 219.42 ± 13
300.15 K | 219.12 ± 31 | –
301.15 K | 219.99 ± 31 | –
302.15 K | 220.81 ± 31 | –
302.4 K | – | 220.86 ± 9
303.15 K | 221.72 ± 31 | –
304.15 K | 222.56 ± 31 | –
305 K | 223.54 ± 31 | –
305.15 K | 223.48 ± 31 | –
306.15 K | 224.53 ± 32 | –
307.15 K | 225.41 ± 32 | –
308.15 K | 226.47 ± 32 | –
309.15 K | 227.45 ± 32 | –
310 K | 228.25 ± 32 | –
310.15 K | 228.42 ± 32 | –
311.15 K | 229.32 ± 32 | –
312.15 K | 230.3 ± 32 | –
313.15 K | 231.18 ± 33 | –
314.15 K | 232.03 ± 33 | –
315 K | 232.85 ± 33 | –
